According to PubChem BioAssay AID1919007 (Molecular Pharmacology Branch, DTP, NCI, 2023):

System: A498 complex spheroids with HUVEC/MSC, growth
Test: Anticancer human tumor A498 cell line growth inhibition [AhR];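 further: seven day exposure starting three days after spheroid seeding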;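 on viability, T/C: luminescence signal used as a surrogate for viable cells; luminescence viability scaled so 100% equals DMSO vehicle wells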
Conditions: for IC50: curve of first compound; for viability, T/C: stronger effect = lower value
Summary of the method: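 Complex tumor spheroids co-cultured with HUVEC and human MSC stroma; AhR antagonists tested in combination with standard-of-care and investigational agents. Top concentration at or near clinical Cmax (else 10 microM), half-log dilutions; growth expressed as percent test/control.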

[1] = second compound 0.1 µM, first compound 0.00949 µM
[2] = second compound 0.1 µM, first compound 0.03 µM
[3] = second compound 0.1 µM, first compound 0.0949 µM
[4] = second compound 0.1 µM, first compound 0.3 µM
[5] = second compound 0.316 µM, first compound 0.00949 µM
[6] = second compound 0.316 µM, first compound 0.03 µM
[7] = second compound 0.316 µM, first compound 0.0949 µM
[8] = second compound 0.316 µM, first compound 0.3 µM
[9] = second compound 1 µM, first compound 0.00949 µM
[10] = second compound 1 µM, first compound 0.03 µM
[11] = second compound 1 µM, first compound 0.0949 µM
[12] = second compound 1 µM, first compound 0.3 µM
[13] = second compound 3.16 µM, first compound 0.00949 µM
[14] = second compound 3.16 µM, first compound 0.03 µM
[15] = second compound 3.16 µM, first compound 0.0949 µM
[16] = second compound 3.16 µM, first compound 0.3 µM
[17] = second compound 10 µM, first compound 0.00949 µM
[18] = second compound 10 µM, first compound 0.03 µM
[19] = second compound 10 µM, first compound 0.0949 µM
[20] = second compound 10 µM, first compound 0.3 µM

In the case of `CC1(C)CCC(CN2CCN(c3ccc(C(=O)NS(=O)(=O)c4ccc(NCC5CCOCC5)c([N+](=O)[O-])c4)c(Oc4cnc5[nH]ccc5c4)c3)CC2)=C(c2ccc(Cl)cc2)C1` + Cc1ccccc1N=Nc1ccc(NC(=O)c2ccnn2C)c(C)c1, the IC50 (second compound 0.1 µM) is reported as 8.58 µM, the IC50 (second compound 0.316 µM) is reported as over 10 µM and the IC50 (second compound 1 µM) is reported as 8.78 µM. It also gave an IC50 (second compound 3.16 µM) of over 10 µM, an IC50 (second compound 10 µM) of 8.77 µM and a viability, T/C (second compound 0.1 µM, first compound 0.0316 µM) of 88.7%. For the same compound, the viability, T/C (second compound 0.1 µM, first compound 0.1 µM) was 89.5%, the viability, T/C (second compound 0.1 µM, first compound 0.316 µM) was 87.9% and the viability, T/C (second compound 0.1 µM, first compound 1 µM) was 86.6%. For the same compound, the viability, T/C (second compound 0.1 µM, first compound 3.16 µM) was 76.8%, the viability, T/C (second compound 0.1 µM, first compound 10 µM) was 45.8% and the viability, T/C (second compound 0.316 µM, first compound 0.0316 µM) was 99.9%. The viability, T/C (second compound 0.316 µM, first compound 0.1 µM) was 98.2%, the viability, T/C (second compound 0.316 µM, first compound 0.316 µM) was 95.6% and the viability, T/C (second compound 0.316 µM, first compound 1 µM) was 87.5%. The viability, T/C (second compound 0.316 µM, first compound 3.16 µM) was 75.9%, the viability, T/C (second compound 0.316 µM, first compound 10 µM) was 52.3% and the viability, T/C (second compound 1 µM, first compound 0.0316 µM) was 84.7%. It also gave a viability, T/C (second compound 1 µM, first compound 0.1 µM) of 87.4%, a viability, T/C (second compound 1 µM, first compound 0.316 µM) of 83.6% and a viability, T/C (second compound 1 µM, first compound 1 µM) of 72%. It also gave a viability, T/C (second compound 1 µM, first compound 3.16 µM) of 66.5%, a viability, T/C (second compound 1 µM, first compound 10 µM) of 47.8% and a viability, T/C (second compound 3.16 µM, first compound 0.0316 µM) of 83%. For the same compound, the viability, T/C (second compound 3.16 µM, first compound 0.1 µM) was 86.7%, the viability, T/C (second compound 3.16 µM, first compound 0.316 µM) was 91.3% and the viability, T/C (second compound 3.16 µM, first compound 1 µM) was 76.9%. For the same compound, the viability, T/C (second compound 3.16 µM, first compound 3.16 µM) was 66.7%, the viability, T/C (second compound 3.16 µM, first compound 10 µM) was 50.5% and the viability, T/C (second compound 10 µM, first compound 0.0316 µM) was 88.3%. For the same compound, the viability, T/C (second compound 10 µM, first compound 0.1 µM) was 86.7%, the viability, T/C (second compound 10 µM, first compound 0.316 µM) was 84.6% and the viability, T/C (second compound 10 µM, first compound 1 µM) was 77.6%. The viability, T/C (second compound 10 µM, first compound 3.16 µM) was 78.5% and the viability, T/C (second compound 10 µM, first compound 10 µM) was 46%.
Work on `CCN(c1cc(-c2ccc(CN3CCOCC3)cc2)cc(C(=O)NCc2c(C)cc(C)[nH]c2=O)c1C)C1CCOCC1` + Cc1ccccc1N=Nc1ccc(NC(=O)c2ccnn2C)c(C)c1 yielded an IC50 (second compound 0.1 µM) of over 3 µM, an IC50 (second compound 0.316 µM) of over 3 µM and an IC50 (second compound 1 µM) of over 3 µM. For the same compound, the IC50 (second compound 3.16 µM) was over 3 µM, the IC50 (second compound 10 µM) was over 3 µM and the viability, T/C [1] was 92.6%. For the same compound, the viability, T/C [2] was 96.8%, the viability, T/C [3] was 94.3% and the viability, T/C [4] was 89.7%. The viability, T/C (second compound 0.1 µM, first compound 0.949 µM) was 93.1%, the viability, T/C (second compound 0.1 µM, first compound 3 µM) was 98.4% and the viability, T/C [5] was 95.4%. The viability, T/C [6] was 98.9%, the viability, T/C [7] was 98.2% and the viability, T/C [8] was 96.8%. For the same compound, the viability, T/C (second compound 0.316 µM, first compound 0.949 µM) was 96.4%, the viability, T/C (second compound 0.316 µM, first compound 3 µM) was 104% and the viability, T/C [9] was 91.3%. For the same compound, the viability, T/C [10] was 92.9%, the viability, T/C [11] was 90.8% and the viability, T/C [12] was 91.2%. It also gave a viability, T/C (second compound 1 µM, first compound 0.949 µM) of 85.2%, a viability, T/C (second compound 1 µM, first compound 3 µM) of 91.6% and a viability, T/C [13] of 86.7%. The viability, T/C [14] was 92.6%, the viability, T/C [15] was 91% and the viability, T/C [16] was 89.2%. It also gave a viability, T/C (second compound 3.16 µM, first compound 0.949 µM) of 87.7%, a viability, T/C (second compound 3.16 µM, first compound 3 µM) of 86.3% and a viability, T/C [17] of 95.6%. For the same compound, the viability, T/C [18] was 91%, the viability, T/C [19] was 95% and the viability, T/C [20] was 89.5%. For the same compound, the viability, T/C (second compound 10 µM, first compound 0.949 µM) was 92.5% and the viability, T/C (second compound 10 µM, first compound 3 µM) was 96.3%.
Work on `Nc1ncn(C2CC(O)C(CO)S2)c(=O)n1` (stereo not given) + Cc1ccccc1N=Nc1ccc(NC(=O)c2ccnn2C)c(C)c1 yielded an IC50 (second compound 0.1 µM) of over 0.3 µM, an IC50 (second compound 0.316 µM) of over 0.3 µM and an IC50 (second compound 1 µM) of over 0.3 µM. It also gave an IC50 (second compound 3.16 µM) of over 0.3 µM, an IC50 (second compound 10 µM) of over 0.3 µM and a viability, T/C (second compound 0.1 µM, first compound 0.000949 µM) of 93.5%. It also gave a viability, T/C (second compound 0.1 µM, first compound 0.003 µM) of 97.4%, a viability, T/C [1] of 101% and a viability, T/C [2] of 89.8%. It also gave a viability, T/C [3] of 89.9%, a viability, T/C [4] of 76.8% and a viability, T/C (second compound 0.316 µM, first compound 0.000949 µM) of 98.2%. For the same compound, the viability, T/C (second compound 0.316 µM, first compound 0.003 µM) was 101%, the viability, T/C [5] was 93.3% and the viability, T/C [6] was 91.6%. The viability, T/C [7] was 88.5%, the viability, T/C [8] was 78.1% and the viability, T/C (second compound 1 µM, first compound 0.000949 µM) was 92%. It also gave a viability, T/C (second compound 1 µM, first compound 0.003 µM) of 93.1%, a viability, T/C [9] of 91.7% and a viability, T/C [10] of 89.2%. For the same compound, the viability, T/C [11] was 79.6%, the viability, T/C [12] was 80.9% and the viability, T/C (second compound 3.16 µM, first compound 0.000949 µM) was 89.8%. It also gave a viability, T/C (second compound 3.16 µM, first compound 0.003 µM) of 94.2%, a viability, T/C [13] of 97.4% and a viability, T/C [14] of 79.3%. It also gave a viability, T/C [15] of 77.5%, a viability, T/C [16] of 71.3% and a viability, T/C (second compound 10 µM, first compound 0.000949 µM) of 88.2%. It also gave a viability, T/C (second compound 10 µM, first compound 0.003 µM) of 89%, a viability, T/C [17] of 87.8% and a viability, T/C [18] of 89.1%. For the same compound, the viability, T/C [19] was 80.8% and the viability, T/C [20] was 75.7%.
